From PubChem BioAssay (NCI)
Values joined by “and” are separate entries in the source; they are usually repeats but may differ in a detail not shown here. Equal entries are not always repeated.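 In this assay, cells in 96-well plates receive the compound at five concentrations for 48 hours. Endpoints are linearly interpolated between the surrounding concentrations. The concentration for 50% growth inhibition is given as GI50. TGI: concentration producing complete growth inhibition.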

What was measured:
Test in all cases: NCI anticancer screen, dose series, 48 h
[1] = system: HCC-2998 colon
[2] = system: KM12 colon
[3] = system: IGROV1 ovarian
[4] = system: CCRF-CEM leukemia
[5] = system: RXF 393 renal
[6] = system: SNB-19 CNS
[7] = system: EKVX NSCLC
[8] = system: SK-MEL-5 melanoma
[9] = system: UO-31 renal
[10] = system: HT29 colon

Row | Structure (SMILES) | TGI [1] | TGI [2] | TGI [3] | TGI [4] | TGI [5] | TGI [6] | TGI [7] | TGI [8] | TGI [9] | TGI [10] | GI50 [1] | GI50 [2] | GI50 [3] | GI50 [4] | GI50 [5] | GI50 [6] | GI50 [7] | GI50 [8] | GI50 [9] | GI50 [10]
1 | C[C@@H]1CC[C@@]2(NC1)O[C@H]1C[C@H]3[C@@H]4CC[C@H]5C[C@@H](O)CC[C@]5(C)[C@H]4CC[C@]3(C)[C@H]1[C@@H]2C | > 100 µM | 66.8 µM | > 100 µM | > 100 µM | > 100 µM | > 100 µM | > 100 µM | > 100 µM | > 100 µM | > 100 µM |  |  |  |  |  |  |  |  |  | 
2 | CC1=NOC(=O)/C1=C/c1ccc2c(c1)OCO2 | 95.5 µM | 36.6 µM | 78.5 µM | 67.5 µM | 30.7 µM | 95 µM | > 100 µM | > 100 µM | 38.9 µM | 57.3 µM |  |  |  |  |  |  |  |  |  | 
3 | CC[PH+](CC)CC.[Cl][Au] | 12 µM | 26 µM | 7.15 µM | 1.33 µM | 1.66 µM | 6.14 µM | 2.91 µM | 2.44 µM | 10.7 µM | 8.96 µM | 6.78 µM | 11.6 µM | 2640 nM | 216 nM | 447 nM | 2.26 µM | 1420 nM | 1140 nM | 6.21 µM | 3.84 µM
4 | C=C(C)[C@@H]1CC[C@]2(C(=O)NS(=O)(=O)c3ccccc3)CC[C@]3(C)[C@H](CC[C@@H]4[C@@]5(C)CC[C@H](OC(=O)NS(=O)(=O)c6ccccc6)C(C)(C)[C@@H]5CC[C@]43C)[C@@H]12 | 2.85 µM | 2.96 µM | 5.56 µM | 19.5 µM | 3.26 µM | 18.2 µM | 21.9 µM | 2.98 µM | 3.04 µM | 11 µM | 1.42 µM | 1.34 µM | 2460 nM | 2290 nM | 1610 nM | 3.42 µM | 3170 nM | 1480 nM | 1.49 µM | 2.03 µM
5 | CCOC(=O)CN1C(=O)c2cc([N+](=O)[O-])cc3cc([N+](=O)[O-])cc(c23)C1=O | > 100 µM | > 100 µM | > 100 µM | 23.2 µM | 83 µM | > 100 µM | > 100 µM | > 100 µM | > 100 µM | > 100 µM |  |  |  |  |  |  |  |  |  | 
6 | C=C1CCC2C3(C)COC(c4ccccc4Cl)OC3CCC2(C)C1/C=C/C1=CCOC1=O (centres undefined) | > 100 µM | > 100 µM | > 100 µM | > 100 µM | > 100 µM | > 100 µM | > 100 µM | 21 µM | > 100 µM | > 100 µM | 21.1 µM | 6.71 µM | > 100000 nM | 5330 nM | > 100000 nM | > 100 µM | 2820 nM | 3780 nM | 6.95 µM | 5.43 µM
7 | O=C[C@@H](CO)O[C@H](C=O)n1cnc2c(=O)[nH]cnc21 | 1200 µM | 1270 µM | 1360 µM | 559 µM | 1470 µM | 2150 µM | 1320 µM | 1150 µM | 1420 µM | 1910 µM |  |  |  |  |  |  |  |  |  | 
8 | C=C1C[C@@H]2C[C@@H](C)CC(O)[C@]2(CCCN)C1O (some centres undefined) | > 100 µM | > 100 µM | > 100 µM | > 100 µM | > 100 µM | > 100 µM | > 100 µM | > 100 µM | > 100 µM | > 100 µM |  |  |  |  |  |  |  |  |  | 
9 | O=C([O-])CC(=O)[O-].[NH-][C@@H]1CCCC[C@H]1[NH-].[Pt+4] | > 100 µM | > 100 µM | > 100 µM | > 100 µM | > 100 µM | > 100 µM | > 100 µM | > 100 µM | > 100 µM | > 100 µM | 18.9 µM | 85 µM | 33500 nM | 4320 nM | > 79000 nM | 32.1 µM | > 100000 nM | 16900 nM | 18.9 µM | 6.13 µM
10 | CNC(=O)c1ccccc1Nc1nc(Nc2ccc3c(c2OC)CCC[C@H](N2CCN(CCO)CC2)C3)ncc1Cl | 11.5 µM and > 10 µM | 11.2 µM and > 10 µM | 5.75 µM and 4.96 µM | 11 µM and > 10 µM | 7.3 µM and > 10 µM | 14.6 µM and > 10 µM | 13.7 µM and > 10 µM | 4.87 µM and 5.19 µM | 11.6 µM and 7.69 µM | 10.5 µM and 1.27 µM | 1.89 µM and 1.56 µM | 3.04 µM and 3.23 µM | 1020 nM and 801 nM | 2950 nM and 2970 nM | 1680 nM and 1980 nM | 2.85 µM and 6.49 µM | 1750 nM and 1720 nM | 1740 nM and 1640 nM | 1.38 µM and 0.714 µM | 0.329 µM and 0.256 µM
11 | O=C1NC(c2ccccc2)C2(C(=O)O)CN(C3CC3)c3cc(N4CCNCC4)c(F)cc3C2N1 (centres undefined) | > 100 µM | > 100 µM | > 100 µM | > 100 µM | > 100 µM | > 100 µM | > 100 µM | > 100 µM | > 100 µM | > 100 µM | > 100 µM | > 100 µM | > 100000 nM | > 100000 nM | > 100000 nM | > 100 µM | > 100000 nM | > 100000 nM | > 100 µM | > 100 µM
12 | CCn1c(-c2nonc2N)nc2c(N3CCCC3)nccc21 | > 25 µM | > 25 µM | > 25 µM | > 25 µM | > 25 µM | > 25 µM | > 25 µM | > 25 µM | > 25 µM | > 25 µM | > 25 µM | 15.7 µM | 12000 nM | 18400 nM | 9630 nM | 19.4 µM | > 25000 nM | 19000 nM | 7.48 µM | 7.97 µM
13 | COc1ccc(-c2cc(=O)c3c(O)c(OC)c(OC)c(OC)c3o2)cc1 | > 20.4 µM | 44.4 µM | > 100 µM | > 100 µM | 62.2 µM | > 100 µM | > 100 µM | > 100 µM | > 100 µM | > 100 µM |  |  |  |  |  |  |  |  |  | 
14 | CN1CCN(CCCOc2cc(O)c3c(=O)cc(-c4ccccc4)oc3c2)CC1 | 27.3 µM | 54.7 µM | 95.3 µM | 56.7 µM | 84 µM | 63.5 µM | > 100 µM | 23.1 µM | 47.3 µM | 30.4 µM | 14.3 µM | 22 µM | 24900 nM | 23600 nM | 30200 nM | 24.9 µM | 37600 nM | 10300 nM | 16.9 µM | 14.5 µM
15 | COc1cc(/C=N/N=C(\N)NO)c([N+](=O)[O-])cc1OC | > 100 µM | > 100 µM | > 100 µM | > 100 µM | 65.2 µM | > 100 µM | > 100 µM | 50.9 µM | > 100 µM | > 100 µM |  |  |  |  |  |  |  |  |  | 
16 | COc1ccc(S(=O)(=O)N(C(C)=O)c2ccccc2/C=C/c2cc[n+]([O-])cc2)cc1 | > 10 µM | > 10 µM | > 10 µM | > 7.66 µM | > 6.85 µM | > 10 µM | > 10 µM | > 10 µM | > 10 µM | > 10 µM | 2.27 µM | 0.335 µM | 1070 nM | 762 nM | 456 nM | 0.418 µM | 1020 nM | 703 nM | 5.02 µM | 0.422 µM
17 | COc1ccc2[nH]c(C(=O)OCc3ccc4c(Cl)cc(Cl)c(O)c4n3)cc2c1 | 3.29 µM | 3.49 µM | 1.95 µM | 2.08 µM | 1.76 µM | 5.69 µM | 2.88 µM | 3.02 µM | 1.96 µM | 2.32 µM | 1.64 µM | 1.76 µM | 601 nM | 312 nM | 407 nM | 2.18 µM | 1450 nM | 1650 nM | 0.378 µM | 0.778 µM
18 | CCC1=C(CC2NCCc3ccccc32)CC2c3cc(OC)c(OC)cc3CCN2C1 (centres undefined) | 15.5 µM and 10.5 µM | 12.2 µM and 4.81 µM | 21.6 µM and 19 µM | 18.6 µM and 4.53 µM | 13.5 µM and 5.3 µM | 13.7 µM and 11.9 µM |  | 13.1 µM and 2.7 µM | 29.7 µM and 3.35 µM | 11.8 µM and 4.53 µM | 3.9 µM | 3.32 µM | 4390 nM | 3810 nM | 2670 nM | 3.6 µM | 4810 nM | 3390 nM | 4.73 µM | 3.31 µM
19 | CC(C)(C)OC(=O)Nc1ccc2c(c1)C(NC(=O)Nc1cccc(C#N)c1)CC(C)(C)O2 (centres undefined) | > 100 µM | > 100 µM | > 100 µM | > 100 µM | 70.2 µM | > 100 µM | > 69.6 µM | 3.15 µM | > 100 µM | > 100 µM | 4.93 µM | 3.39 µM | 4440 nM | 3800 nM | 5890 nM | 3.54 µM | 691 nM | 463 nM | 3.36 µM | 6.71 µM
20 | CC/C(=C/c1ccc(OC)cc1OC)[N+](=O)[O-] | 15.8 µM | 6.75 µM | 11.5 µM | 7.01 µM | 3.57 µM | 16.6 µM | 28.9 µM | 14 µM | 3.09 µM | 11.1 µM | 4.32 µM | 2.41 µM | 3400 nM | 2050 nM | 1880 nM | 4.35 µM | 15400 nM | 4120 nM | 1.57 µM | 3.37 µM
21 | COc1cc(C(=O)c2cocc2C(=O)c2ccc3c(c2)OCO3)cc(OC)c1OC | 16.9 µM | 59.1 µM | 48.5 µM | > 51.6 µM | 4.43 µM | 35.3 µM | > 58.3 µM | 25.5 µM | 33.9 µM | 5.98 µM |  |  |  |  |  |  |  |  |  | 
22 | COc1ccc2nc3cc(Cl)ccc3c(Nc3cc(CN4CCCC4)c(O)c(CN4CCCC4)c3)c2n1 | 2.91 µM | 10.9 µM | 13.6 µM | 4.03 µM | 3.05 µM | 10.7 µM | 9.68 µM | 2.9 µM | 12.7 µM | 10.5 µM | 1.25 µM | 1.66 µM | 2510 nM | 1120 nM | 1250 nM | 1.84 µM | 2340 nM | 1560 nM | 1.44 µM | 1.42 µM
23 | CN(C)CCCNc1nc2ccccc2c2[nH]c3ccccc3c12 | 0.942 µM | 2.28 µM | 18.4 µM | 1.38 µM | 3.55 µM | 6.2 µM | 4.75 µM | 8.33 µM | 10.9 µM | 33 µM | 0.251 µM | 0.721 µM | 1390 nM | 206 nM | 1230 nM | 1.57 µM | 1380 nM | 3020 nM | 1.69 µM | 0.163 µM
